Assay results as given in patent publication US8946282B2, “Indolin-2-one derivatives as protein kinase inhibitors” (Annji Pharmaceutical Co., Ltd., priority 2012, dated 2015).

Key:
aurora B = aurora B (Homo sapiens, UniProt Q96GD4); experiment: radioisotope-based P81 filter-binding assay, aurora B kinase; type: biochemical; settings: averaged from two independent dose-response curves; read-out: Enzyme assay IC50 Aur B
Experimental: (§1) Compounds of formula (I)-(IV) were evaluated for abilities in inhibiting protein kinases aurora B and FLT-3 activity using radioisotope-based P81 filter-binding assay (Table 1).

FLT-3 = target: T1, FLT-3 (Homo sapiens, UniProt P36888); experiment: radioisotope-based P81 filter-binding assay, FLT-3 kinase; type: biochemical; settings: averaged from two independent dose-response curves; read-out: Enzyme assay IC50 FLT-3
T1 sequence (P36888 27-993): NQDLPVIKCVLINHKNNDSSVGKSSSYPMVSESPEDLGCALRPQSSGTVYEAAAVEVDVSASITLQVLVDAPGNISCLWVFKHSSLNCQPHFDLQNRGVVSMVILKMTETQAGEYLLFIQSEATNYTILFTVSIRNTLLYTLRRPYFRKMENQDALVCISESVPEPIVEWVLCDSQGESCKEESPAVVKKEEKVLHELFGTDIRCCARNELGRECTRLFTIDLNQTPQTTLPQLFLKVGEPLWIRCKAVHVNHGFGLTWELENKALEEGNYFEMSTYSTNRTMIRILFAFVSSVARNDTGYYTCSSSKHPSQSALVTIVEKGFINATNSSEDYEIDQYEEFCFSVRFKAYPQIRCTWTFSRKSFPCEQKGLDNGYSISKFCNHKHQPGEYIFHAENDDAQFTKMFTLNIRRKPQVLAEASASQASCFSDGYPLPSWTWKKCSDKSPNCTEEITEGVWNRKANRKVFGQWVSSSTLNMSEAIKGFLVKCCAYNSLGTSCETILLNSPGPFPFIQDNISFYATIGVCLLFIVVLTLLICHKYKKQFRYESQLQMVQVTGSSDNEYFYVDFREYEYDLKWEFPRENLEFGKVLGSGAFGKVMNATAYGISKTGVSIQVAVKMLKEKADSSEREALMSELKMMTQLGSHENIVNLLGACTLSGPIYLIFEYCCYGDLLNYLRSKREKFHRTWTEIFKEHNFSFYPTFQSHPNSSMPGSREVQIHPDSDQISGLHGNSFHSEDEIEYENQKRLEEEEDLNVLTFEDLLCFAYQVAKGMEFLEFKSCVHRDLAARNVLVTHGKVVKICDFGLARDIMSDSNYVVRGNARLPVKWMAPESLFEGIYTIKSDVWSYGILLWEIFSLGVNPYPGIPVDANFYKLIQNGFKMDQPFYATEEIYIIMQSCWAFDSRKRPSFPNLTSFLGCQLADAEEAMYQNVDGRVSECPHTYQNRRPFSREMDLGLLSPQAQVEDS
Experimental: as §1

[1] = system: A549 human lung carcinoma cells; experiment: anti-proliferation, SRB colorimetric assay, A549; type: cell-based; settings: concentration required for 50% growth inhibition, read-out: IC50 (μM, mean ± S.D.)
[2] = system: HCT116 human colorectal carcinoma cells; experiment: anti-proliferation, SRB colorimetric assay, HCT116; type: cell-based; settings: HCT-116, concentration required for 50% growth inhibition, read-out: IC50 (μM, mean ± S.D.)
Experimental: (§2) HCT116 human colorectal carcinoma cells (Table 3), HepG2 human hepatocellular carcinoma cells (Table 4), and MV4-11 human acute myelomonocytic leukemia cells (Table 5). Cells were treated with the test compound and the concentration required for 50% growth inhibition (IC50) determined by sulfomodamine B (SRB) colorimetric assay.

[3] = system: HepG2 human hepatocellular carcinoma cells; experiment: anti-proliferation, SRB colorimetric assay, HepG2; type: cell-based; settings: concentration required for 50% growth inhibition, read-out: IC50 (μM, mean ± S.D.)
Text: HCT116 human colorectal carcinoma cells (Table 3), HepG2 human hepatocellular carcinoma cells (Table 4), and MV4-11 human acute myelomonocytic leukemia cells (Table 5).

[4] = system: MV4-11 human acute myelomonocytic leukemia cells; experiment: anti-proliferation, SRB colorimetric assay, MV4-11; type: cell-based; settings: concentration required for 50% growth inhibition
Experimental: as §2

Huh7 cancer cell line = experiment: in vivo efficacy, Huh7 xenografts in SCID mice; settings: established xenografts of Huh7 cancer cell line in female SCID mice

aurora B, sequence (Q96GD4 whole entry): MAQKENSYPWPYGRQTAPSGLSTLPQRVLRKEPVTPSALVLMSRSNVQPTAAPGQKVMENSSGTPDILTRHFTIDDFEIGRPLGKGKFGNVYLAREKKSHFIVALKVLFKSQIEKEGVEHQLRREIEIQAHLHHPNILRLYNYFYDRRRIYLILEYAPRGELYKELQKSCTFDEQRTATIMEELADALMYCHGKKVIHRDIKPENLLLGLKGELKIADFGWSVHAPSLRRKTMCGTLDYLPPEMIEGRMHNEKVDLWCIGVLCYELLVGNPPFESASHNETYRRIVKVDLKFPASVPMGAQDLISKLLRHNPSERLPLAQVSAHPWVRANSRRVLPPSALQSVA

IC50 (aurora B) [nM] | IC50 (FLT-3) [nM] | IC50 [1] [µM] | IC50 [2] [µM] | IC50 [3] [µM] | melting point | IC50 [4] [nM] | SMILES | tumor size (Huh7 cancer cell line)
1.5 | 12.4 | 0.11 ± 0.01 | 0.97 ± 0.21 | 0.47 ± 0.1 | 267 to 272 °C (dec.) | – | Cc1[nH]c(/C=C2\C(=O)Nc3cc(NC(=O)NC(=O)c4ccccc4F)ccc32)c(C)c1CCC(=O)O [D54, (Z)-3-(5-((6-(3-(2-fluorobenzoyl)ureido)-2-oxoindolin-3-ylidene)methyl)-2,4-dimethyl-1H-pyrrol-3-yl)propanoic acid] | –
1.8 | 45.7 | 0.08 ± 0.01 | 0.45 ± 0.02 | 0.21 ± 0.02 | > 300 °C | – | Cc1[nH]c(/C=C2\C(=O)Nc3cc(NC(=O)NC(=O)c4ccc(F)cc4)ccc32)c(C)c1CCC(=O)O [D55, (Z)-3-(5-((6-(3-(4-fluorobenzoyl)ureido)-2-oxoindolin-3-ylidene)methyl)-2,4-dimethyl-1H-pyrrol-3-yl)propanoic acid] | –
2.1 | 2.7 | 0.1 ± 0.01 | 0.32 ± 0.07 | 0.13 ± 0.06 | 280 to 285 °C (dec.) | – | Cc1[nH]c(/C=C2\C(=O)Nc3cc(NC(=O)NC(=O)c4ccc(F)cc4F)ccc32)c(C)c1CCC(=O)O [D56, (Z)-3-(5-((6-(3-(2,4-difluorobenzoyl)ureido]-2-oxoindolin-3-ylidene)methyl)-2,4-dimethyl-1H-pyrrol-3-yl)propanoic acid] | –
10.2 | 24.9 | 0.62 ± 0.06 | 0.63 ± 0.09 | 0.81 ± 0.04 | > 300 °C | 25 | COc1ccc(-c2c[nH]cc(C(=O)Nc3ccc4c(c3)NC(=O)/C4=C\c3ccc[nH]3)c2=O)cc1 [D128, (Z)—N-(3-((1H-pyrrol-2-yl)methylene)-2-oxoindolin-6-yl)-5-(4-methoxyphenyl)-4-oxo-1,4-dihydropyridine-3-carboxamide] | –
53.8 | 7.6 | < 0.1 | 0.57 ± 0.04 | 0.67 ± 0.05 | > 300 °C | 4.38 | O=C1Nc2cc(NC(=O)c3c[nH]cc(-c4ccc(Cl)cc4)c3=O)ccc2/C1=C/c1ccc[nH]1 [D130, (Z)—N-(3-((1H-pyrrol-2-yl)methylene)-2-oxoindolin-6-yl)-5-(4-chlorophenyl)-4-oxo-1,4-dihydropyridine-3-carboxamide] | –
63.2 | 74.7 | 0.52 ± 0.03 | 0.56 ± 0.03 | 0.71 ± 0.07 | > 300 °C | 18.4 | Cc1ccc(-c2c[nH]cc(C(=O)Nc3ccc4c(c3)NC(=O)/C4=C\c3ccc[nH]3)c2=O)cc1 [D131, (Z)—N-(3-((1H-pyrrol-2-yl)methylene)-2-oxoindolin-6-yl)-5-p-tolyl-4-oxo-1,4-dihydropyridine-3-carboxamide] | –
161 | 148 | 0.5 ± 0.01 | 0.63 ± 0.03 | 0.55 ± 0.03 | > 300 °C | 9.1 | O=C1Nc2cc(NC(=O)c3c[nH]cc(-c4cccc(Cl)c4)c3=O)ccc2/C1=C/c1ccc[nH]1 [D132, (Z)—N-(3-((1H-pyrrol-2-yl)methylene)-2-oxoindolin-6-yl)-5-(3-chlorophenyl)-4-oxo-1,4-dihydropyridine-3-carboxamide] | –
348 | 100 | 0.45 ± 0.08 | 0.65 ± 0.04 | 0.73 ± 0.03 | > 300 °C | 5.9 | O=C1Nc2cc(NC(=O)c3c[nH]cc(-c4ccc(C(F)(F)F)cc4)c3=O)ccc2/C1=C/c1ccc[nH]1 [D133] | –
25.5 | 100 | 0.46 ± 0.06 | 0.73 ± 0.09 | 0.6 ± 0.07 | > 300 °C | 13.2 | O=C1Nc2cc(NC(=O)c3c[nH]cc(-c4ccccc4F)c3=O)ccc2/C1=C/c1ccc[nH]1 [D134, (Z)—N-(3-((1H-pyrrol-2-yl)methylene)-2-oxoindolin-6-yl)-4-oxo-5-(2-fluorophenyl)-1,4-dihydropyridine-3-carboxamide] | suppressed the tumor size
64.5 | 50.1 | 0.59 ± 0.09 | 0.78 ± 0.1 | 0.56 ± 0.16 | > 300 °C | 4.25 | O=C1Nc2cc(NC(=O)c3c[nH]cc(-c4ccc(F)cc4F)c3=O)ccc2/C1=C/c1ccc[nH]1 [D135, (Z)—N-(3-((1H-pyrrol-2-yl)methylene)-2-oxoindolin-6-yl)-4-oxo-5-(2,4-difluorophenyl)-1,4-dihydropyridine-3-carboxamide] | –
123 | > 1000 | 0.6 | 0.6 | 0.6 | > 300 °C | – | O=C1Nc2cc(NC(=O)c3c[nH]cc(-c4cc(F)cc(F)c4)c3=O)ccc2/C1=C/c1ccc[nH]1 [D136, (Z)—N-(3-((1H-pyrrol-2-yl)methylene)-2-oxoindolin-6-yl)-4-oxo-5-(3,5-difluorophenyl)-1,4-dihydropyridine-3-carboxamide] | –

SMILES | IC50 (aurora B) [nM] | IC50 (FLT-3) [nM] | IC50 [1] [µM] | IC50 [2] [µM] | IC50 [3] [µM] | melting point | IC50 [4] [nM] | tumor size (Huh7 cancer cell line)
CCN(CC)CCNC(=O)c1c(C)[nH]c(/C=C2\C(=O)Nc3cc(NC(=O)NC(=O)c4ccc(OC)cc4F)ccc32)c1C [D69, (Z)—N-(2-(diethylamino)ethyl)-5-((6-(3-(2-fluoro-4-methoxybenzoyl)ureido)-2-oxoindolin-3-ylidene)methyl)-2,4-dimethyl-1H-pyrrole-3-carboxamide] | 7.6 | 4.4 | 0.46 ± 0.07 | 0.91 ± 0.01 | 0.88 ± 0.04 | 275 to 280 °C (dec.) | – | –
